Assay results published in US20130296331A1, “COMPOSITIONS AND METHODS FOR AMELIORATING RENAL DYSFUNCTION INDUCED BY RENAL HYPOPERFUSION OR ACUTE KIDNEY INJURY” (Technion Research and Development Foundation Ltd., priority 2010, published 2013).

Key:
[1] = system: rats with decompensated CHF; test: Pneumoperitoneum (incremental IAP) in rats with decompensated CHF induced by aorto-caval fistula; format: in vivo, rat; conditions: pretreated 10 mg/kg/day for 4 days
Excerpt: CHF was induced by surgical creation of aorto-caval fistula (ACF) between the abdominal aorta and the vena cava, as schematically shown in FIG. 1. […] Similar pattern was reported in clinical CHF.
(§1) The abdomen was opened via small incision in the lower third between the xiphoid and pubis and the urinary bladder was catheterized for urine collection. A Veress needle was inserted into the abdominal cavity and connected to the CO2 gas supply to maintain intra-abdominal pressure (IAP) at the desired level using a special insufflator (Aesculap, Tuttlingen, Germany). The muscle and skin layers of the abdominal wall were closed separately by silk sutures in an airtight manner (FIG. 2).
(§2) Male Sprague-Dawley rats were organized into several groups. Normal rats, rats with compensated or decompensated CHF (n=12-13), and rats with MI (n=7) were subjected to IAP of 0 (baseline), 7, 10 or 14 mmHg, over 45-60 min for each pressure, followed by deflation period of 60 min (recovery), as illustrated in Scheme 1. Six additional rats with decompensated CHF and seven additional rats with MI were pretreated with the phosphodiesterase type 5 (PDE5) inhibitor Cialis® (tadalafil; 10 mg/kg/day) for 4 days prior to the experiment. Urine flow rate (V), absolute Na^+ excretion (UNaV), glomerular filtration rate (GFR), renal plasma flow (RPF) and blood pressure were determined throughout the experiments.
In this study, the effects of the phosphodiesterase type 5 (PDE5) inhibitor Cialis® (tadalafil), administered as described in Materials and Methods, on the adverse effects of incremental IAP, simulating pneumoperitoneum, on GFR, RPF, urinary flow rate (V), urinary sodium excretion (UNaV) and urinary cGMP excretion (UcGMP), in rats with decompensated CHF were tested.

[2] = system: rats with ischemic acute kidney injury; test: Experimental acute kidney injury induced by warm renal ischemia of 45 min (renal artery clamping); format: in vivo, rat; conditions: rats pretreated before renal ischemia of 45 min
Protocol: Male Sprague Dawley rats weighing 300-350 gr were housed under standardized conditions for 2-3 days. Following an overnight fast, the animals were anaesthetized with an inactin anesthesia (100 mg/kg, IP) and placed on a controlled heating (thermoregulated) table keeping the body temperature at 37° C. Polyethylene tubes (PE50) were inserted into the right carotid artery for blood pressure monitoring and blood sampling, and into the jugular vein for infusion of 0.9% normal saline (0.9% NaCl) at a 1.5 ml/h rate, as well as 2% inulin and 1% para-aminohippuric acid (PAH) at a rate of 1.5 ml/h, by syringe pumps. Arterial blood pressure was continuously monitored with a pressure transducer connected to the carotid arterial line. Additional two catheters were inserted after a supravesical incision into the bladder for urine collection. In order to minimize dehydration, the abdominal area was covered with saline-soaked gauze. After 2 baseline urine collections, the left renal artery and vein were dissected and the perirenal fat was preserved. […] Urinary samples were analyzed for neutrophil gelatinase-associated lipocalcin (NGAL) and kidney injury molecule 1 (KIM-1), two novel biomarkers of renal damage. […] The levels of NGAL and KIM-1 were determined in urine samples prior to acute kidney injury (AKI) and at various time points following renal artery clamping.

[3] = system: rats with MI; test: Pneumoperitoneum (incremental IAP) in rats with myocardial infarction (LAD occlusion); format: in vivo, rat; conditions: pretreated 10 mg/kg/day for 4 days
Protocol: Rats were anesthetized with a combination of ketamine (87 mg/kg) and xylazine (13 mg/kg), intubated, and mechanically ventilated at a rate of 80-90 cycles per minute with a tidal volume of 1-2 ml/100 gr. MI was induced by the most common method. Specifically, the left anterior descending (LAD) artery was completely and permanently occluded. Consequently, a large area of the left ventricle wall was deprived of its blood supply, and was thus exposed to hypoxia, ischemia, nutrient starvation and other conditions that develop under these circumstances. Seven days after LAD inclusion, the rats were used in the experimental model of pneumoperitoneum described below.
as §1, §2
In this study we tested whether rats with heart failure induced by myocardial infarction (MI) display renal susceptibility to IAP similar to that of rats with CHF induced by the creation of ACF. As expected and shown in FIGS. 9A-9D, rats with MI had lower basal GFR and RPF compared with control animals. […] These adverse effects were more profound in rats with MI as compared with sham controls.

[4] = system: rats subjected to IAP of 14 mm Hg; conditions: rat, in vivo; cited from earlier work

| SMILES | adverse effects of increased IAP on urinary flow rate (V) ([1]; FIG. 7A) | adverse effects of increased IAP on urinary sodium excretion (UNaV) ([1]; FIG. 7B) | inhibitory effect of IAP on urinary cGMP excretion (UcGMP V) ([1]; FIG. 8) | adverse effects of increased IAP on GFR ([1]; IAP 7, 10, 14 mmHg, FIGS. 6A-6B) | adverse effects of increased IAP on RPF ([1]; IAP 7, 10, 14 mmHg, FIGS. 6C-6D) | urinary excretion of NGAL ([2]; FIG. 13A) | urinary excretion of KIM-1 ([2]; FIG. 13B) | inhibitory effect of IAP on urinary cGMP excretion (UcGMP V) ([3]; FIG. 11) | adverse effects of pneumoperitoneum on GFR ([3]; FIGS. 9A-9B) | adverse effects of pneumoperitoneum on RPF ([3]; FIGS. 9C-9D) | adverse effects of pneumoperitoneum on urinary flow rate (V) ([3]; IAP 14 mmHg, FIG. 10A) | adverse effects of pneumoperitoneum on urinary sodium excretion (UnaV) ([3]; IAP 14 mmHg, FIG. 10B) | IAP-induced renal dysfunction (decreased renal excretory function and hypofiltration) [4] |
| --- | --- | --- | --- | --- | --- | --- | --- | --- | --- | --- | --- | --- | --- |
| CN1CC(=O)N2[C@H](c3ccc4c(c3)OCO4)c3[nH]c4ccccc4c3C[C@@H]2C1=O [Cialis®, (6R-trans)-6-(1,3-benzodioxol-5-yl)-2,3,6,7,12,12a-hexahydro-2-methyl-pyrazino[1′,2′:1,6]pyrido[3,4-b]indole-1,4-dione] | abolished | abolished | prevented | remarkably attenuated | remarkably attenuated | significantly attenuated | significantly attenuated | significantly attenuated | substantially attenuated | substantially attenuated | partially ameliorated | partially ameliorated |  |
| O=[N+]([O-])OCC(CO[N+](=O)[O-])O[N+](=O)[O-] [nitroglycerine] |  |  |  |  |  |  |  |  |  |  |  |  | partially ameliorated |
